Measurements reported in patent US20110166121A1 (LG LIFE SCIENCES LTD., priority 2008, published 2011).

test system: Human platelet aggregation caused by ADP; experiment: Inhibition of ADP-induced platelet aggregation (Mimic-human PRP); type: cell-based; conditions: 20 μM ADP, human platelet concentrate diluted with PPP, absorption at 595 nm
Description: Platelet Preparation for Aggregation Studies
Human platelet aggregation reaction test is a functional experiment method to verify whether a test compound is an agonist or an antagonist to ADP receptor. […] The platelet product isolated from whole blood was purchased from Chung-Nam blood center (Dae-joen, South Korea). The platelet was isolated from 400 mL of whole blood containing 56 mL of CPDA-1 anticoagulant. To isolate the platelet product, 400 mL of whole blood was centrifuged at 260×g for 5 minutes, and then obtained PRP (platelet rich plasma) was secondary centrifuged at 370×g for 6 minutes. Platelet pellet (10^9/mL) was suspended with 45 mL of plasma and then agitated over 1 hour at 22° C. blood reservoir to stabilize it. The stabilized platelet product was used in the experiment within 24 hours. PCs (Platelet Concentrates) were gently transferred to a new 50 ml-falcon tube. The number of platelet was counted by using animal blood counter (ABC Vet, ABX diagnostics, France). The volume of 30 mL of PCs collected from same donor was centrifuged at 1500 g for 10 min at room temperature to prepare platelet-poor plasma (PPP). The platelet count was adjusted to platelet number of 3˜4×10^8/mL by diluting with PPP.
Evaluation on Inhibitory Effect of ADP-Induced Aggregation
Inhibition of ADP-induced aggregation was determined in 96-well flat-bottom plates (Costar, USA) at room temperature. The diluted platelet was aliquoted into each well of 96 well plate in the volume of 188 μl. […] The platelet including test compounds was immediately mixed on a shaker at 1050 rpm for 1 min and incubated at room temperature for 20 min. Then, 10 μL volume of 400 μM ADP was added: the final concentration of 20 μM ADP in the total reaction volume of 0.2 mL/well. After shaking of the plate at room temperature for 3 min, the absorption of the samples was determined at 595 nm using a microtiter plate reader (Softmax, Molecular Devices).
A dose-dependent curve on serial dilutions of ADP was accomplished by adding vehicle (DMSO) instead of antagonists in order to calculate EC50 of ADP. Inhibition of aggregation was calculated from the increase of absorption at 595 nm at 3 min of the reaction incubation, compared to results of absorption between the 0 and 20 μM ADP control without antagonists. Sigmoidal dose-response curves and Ki were derived by non-linear regression analysis using the Prism software (GraphPad, San Diego Calif.).

| Structure (SMILES) | Ki |
| --- | --- |
| CCCc1cc2c(N3CCn4c(nnc4C(F)(F)F)C3)nc(N3CC[C@H](C(=O)N(C)C)C3)nc2s1 [Example 1-88, (S)-1-[6-Propyl-4-(3-trifluoromethyl-5,6-dihydro-8H-[1,2,4]triazolo[4,3-a]pyrazin-7-yl)-thieno[2,3-d]pyrimidin-2-yl]-pyrrolidine-3-carboxylic acid dimethylamide] | 16 nM |
| CCCc1cc2c(N3CCn4c(nnc4C(F)(F)F)C3)nc(N3CCCC(C(N)=O)C3)nc2s1 (stereo not shown) [Example 1-92, 1-[6-Propyl-4-(3-trifluoromethyl-5,6-dihydro-8H-[1,2,4]triazolo[4,3-a]pyrazin-7-yl)-thieno[2,3-d]pyrimidin-2-yl]-piperidine-3-carboxylic acid amide] | 30 nM |
| CCCc1cc2c(N3CCn4c(nnc4C(F)(F)F)C3)nc(N3CCCC(C(=O)NC)C3)nc2s1 (stereo not shown) [Example 1-93, 1-[6-Propyl-4-(3-trifluoromethyl-5,6-dihydro-8H-[1,2,4]triazolo[4,3-a]pyrazin-7-yl)-thieno[2,3-d]pyrimidin-2-yl]-piperidine-3-carboxylic acid methylamide] | 204 nM |
| CCCc1cc2c(N3CCn4c(nnc4C(F)(F)F)C3)nc(N3CCCC(C(=O)N(C)C)C3)nc2s1 (stereo not shown) [Example 1-94, 1-[6-Propyl-4-(3-trifluoromethyl-5,6-dihydro-8H-[1,2,4]triazolo[4,3-a]pyrazin-7-yl)-thieno[2,3-d]pyrimidin-2-yl]-piperidine-3-carboxylic acid dimethylamide] | 29 nM |
| CCCc1cc2c(N3CCn4c(nnc4C(F)(F)F)C3)nc(N3CCCC(C(=O)NO)C3)nc2s1 (stereo not shown) [Example 1-95, 1-[6-Propyl-4-(3-trifluoromethyl-5,6-dihydro-8H-[1,2,4]triazolo[4,3-a]pyrazin-7-yl)-thieno[2,3-d]pyrimidin-2-yl]-piperidine-3-carboxylic acid hydroxyamide] | 11 nM |
| CCCc1cc2c(N3CCn4c(nnc4C(F)(F)F)C3)nc(N3CC[C@H](NC(=O)CO)C3)nc2s1 [Example 1-100, 2-Hydroxy-N-{(S)-1-[6-propyl-4-(3-trifluoromethyl-5,6-dihydro-8H-[1,2,4]triazolo[4,3-a]pyrazin-7-yl)-thieno[2,3-d]pyrimidin-2-yl]-pyrrolidin-3-yl}-acetamide] | 6 nM |
| CCCc1cc2c(N3CCn4c(nnc4C(F)(F)F)C3)nc(N3CC[C@H](NC(=O)CN)C3)nc2s1 [Example 1-101, 2-Amino-N-{(S)-1-[6-propyl-4-(3-trifluoromethyl-5,6-dihydro-8H-[1,2,4]triazolo[4,3-a]pyrazin-7-yl)-thieno[2,3-d]pyrimidin-2-yl]-pyrrolidin-3-yl}-acetamide] | 3.5 nM |
| CCCc1cc2c(N3CCn4c(nnc4C(F)(F)F)C3)nc(N3CC[C@H](NC(=O)COC)C3)nc2s1 [Example 1-102, 2-Methoxy-N-{(S)-1-[6-propyl-4-(3-trifluoromethyl-5,6-dihydro-8H-[1,2,4]triazolo[4,3-a]pyrazin-7-yl)-thieno[2,3-d]pyrimidin-2-yl]-pyrrolidin-3-yl}-acetamide] | 8.6 nM |
| CCCc1cc2c(N3CCn4c(nnc4C(F)(F)F)C3)nc(N3CC[C@H](NC(C)=O)C3)nc2s1 [Example 1-105, N-{(S)-1-[6-Propyl-4-(3-trifluoromethyl-5,6-dihydro-8H-[1,2,4]triazolo[4,3-a]pyrazin-7-yl)-thieno[2,3-d]pyrimidin-2-yl]-pyrrolidin-3-yl}-acetamide] | 4.4 nM |
| CCCc1cc2c(N3CCn4c(nnc4C(F)(F)F)C3)nc(N3CC[C@H](NC(=O)C(F)(F)F)C3)nc2s1 [Example 1-106, 2,2,2-Trifluoro-N-{(S)-1-[6-propyl-4-(3-trifluoromethyl-5,6-dihydro-8H-[1,2,4]triazolo[4,3-a]pyrazin-7-yl)-thieno[2,3-d]pyrimidin-2-yl]-pyrrolidin-3-yl}-acetamide] | 16 nM |
| CCCc1cc2c(N3CCn4c(nnc4C(F)(F)F)C3)nc(N3CC[C@H](NC(=O)C(C)(C)O)C3)nc2s1 [Example 1-107, 2-Hydroxy-2-methyl-N-{(S)-1-[6-propyl-4-(3-trifluoromethyl-5,6-dihydro-8H-[1,2,4]triazolo[4,3-a]pyrazin-7-yl)-thieno[2,3-d]pyrimidin-2-yl]-pyrrolidin-3-yl}-propionamide] | 19 nM |
| CCCc1cc2c(N3CCn4c(nnc4C(F)(F)F)C3)nc(N3CC[C@H](NC(=O)C4CC4)C3)nc2s1 [Example 1-108, Cyclopropanecarboxylic Acid {(S)-1-[6-propyl-4-(3-trifluoromethyl-5,6-dihydro-8H-[1,2,4]triazolo[4,3-a]pyrazin-7-yl)-thieno[2,3-d]pyrimidin-2-yl]-pyrrolidin-3-yl}-amide] | 9.3 nM |
| CCCc1cc2c(N3CCn4c(nnc4C(F)(F)F)C3)nc(N3CC(N)C(O)C3)nc2s1 (stereo not shown) [Example 1-114, 4-Amino-1-[6-propyl-4-(3-trifluoromethyl-5,6-dihydro-8H-[1,2,4]triazolo[4,3-a]pyrazin-7-yl)-thieno[2,3-d]pyrimidin-2-yl]-pyrrolidin-3-ol] | 3.8 nM |
| CCCc1cc2c(N3CCn4c(nnc4C(F)(F)F)C3)nc(N(CCO)CC(=O)O)nc2s1 [Example 1-118, {(2-Hydroxy-ethyl)-[6-propyl-4-(3-trifluoromethyl-5,6-dihydro-8H-[1,2,4]triazolo[4,3-a]pyrazin-7-yl)-thieno[2,3-d]pyrimidin-2-yl]-amino}-acetic acid] | 34 nM |
| CCCc1cc2c(N3CCn4c(nnc4C(F)(F)F)C3)nc(N3CC[C@H](NC(=O)Cc4csc(N)n4)C3)nc2s1 [Example 1-119, 2-(2-Amino-thiazol-4-yl)-N-{(S)-1-[6-propyl-4-(3-trifluoromethyl-5,6-dihydro-8H-[1,2,4]triazolo[4,3-a]pyrazin-7-yl)-thieno[2,3-d]pyrimidin-2-yl]-pyrrolidin-3-yl}-acetamide] | 7.2 nM |
| CCCc1cc2c(N3CCn4c(nnc4C(F)(F)F)C3)nc(N3CC[C@H](NC(=O)Cc4ccccn4)C3)nc2s1 [Example 1-121, N-{(S)-1-[6-Propyl-4-(3-trifluoromethyl-5,6-dihydro-8H-[1,2,4]triazolo[4,3-a]pyrazin-7-yl)-thieno[2,3-d]pyrimidin-2-yl]-pyrrolidin-3-yl}-2-pyridin-2-yl-acetamide] | 19 nM |
| CCCc1cc2c(N3CCn4c(nnc4C(F)(F)F)C3)nc(N3CCS(=O)(=O)CC3)nc2s1 [Example 1-124, 7-[2-(1,1-Dioxo-1lambda*6*-thiomorpholin-4-yl)-6-propyl-thieno[2,3-d]pyrimidin-4-yl]-3-trifluoromethyl-5,6,7,8-tetrahydro-[1,2,4]triazolo[4,3-a]pyrazine] | 3.9 nM |
| CCCc1cc2c(N3CCn4c(nnc4C(F)(F)F)C3)nc(N3C=CC4=NCCNC4=C3)nc2s1 [Example 1-133, 6-[6-Propyl-4-(3-trifluoromethyl-5,6-dihydro-8H-[1,2,4]triazolo[4,3-a]pyrazin-7-yl)thieno[2,3-d]pyrimidin-2-yl]-2,3,4,6-tetrahydro-pyrido[3,4-b]pyrazine] | 145 nM |
| CCCc1cc2c(N3CCn4c(nnc4C(F)(F)F)C3)nc(OCCNCC(=O)OCC)nc2s1 [Example 3-54, {2-[6-Propyl-4-(3-trifluoromethyl-5,6-dihydro-8H-[1,2,4]triazolo[4,3-a]pyrazin-7-yl)-thieno[2,3-d]pyrimidin-2-yloxy]-ethylamino}-acetic acid ethyl ester] | 206 nM |
| CCCc1cc2c(N3CCn4c(nnc4C(F)(F)F)C3)nc(OCCN(CC(=O)OCC)C(=O)C3CC3)nc2s1 [Example 3-56, (Cyclopropanecarbonyl-{2-[6-propyl-4-(3-trifluoromethyl-5,6-dihydro-8H-[1,2,4]triazolo[4,3-a]pyrazin-7-yl)-thieno[2,3-c]pyrimidin-2-yloxy]-ethyl}-amino)-acetic acid ethyl ester] | 75 nM |
| CCCc1cc2c(N3CCn4c(nnc4C(F)(F)F)C3)nc(OCCN(CC(=O)O)C(=O)C3CC3)nc2s1 [Example 3-57, (Cyclopropanecarbonyl-{2-[6-propyl-4-(3-trifluoromethyl-5,6-dihydro-8H-[1,2,4]triazolo[4,3-a]pyrazin-7-yl)-thieno[2,3-d]pyrimidin-2-yloxy]-ethyl}-amino)-acetic acid] | 23 nM |
| CCCc1cc2c(N3CCn4c(nnc4C(F)(F)F)C3)nc(OCCNC(=O)C3CC3)nc2s1 [Example 3-59, Cyclopropanecarboxylic Acid {2-[6-propyl-4-(3-trifluoromethyl-5,6-dihydro-8H-[1,2,4]triazolo[4,3-a]pyrazin-7-yl)-thieno[2,3-d]pyrimidin-2-yloxy]-ethyl}-amide] | 1.5 nM |
